The text below walks through data of patent US20110123483A1, “HMGB1 FOR CANCER TREATMENT” (DEUTSCHES KREBSFORSCHUNGSZENTRUM, priority 2009, published 2011).

Holding throughout (assay type): cell-based, human
Test [1] has as its system U251 MG cells. The experiment in a line: ROS measurement by DCF fluorescence and FACS analysis. The following applies: co-treatment with rhHMGB1 (FIG. 3A). The procedure: For measurement of reactive oxygen species (ROS) and mitochondrial membrane potential (MMP) 1.5×10^6 U251 MG cells were seeded in 6 cm plates, treated with 40 nM rhHMGB1 for 24 h and incubated with the fluorescent DiOC6 (3,3′-dihexyloxacarbocyanine iodide, 40 nmol/ll, Sigma Chemical Co., St. Louis, Mo.) or with the fluorescent H2DCF-DA (dichlorodihydrofluorescein diacetate, 10 μM, Invitrogen) for 1 h at 37° C., respectively. The cells were trypsinized and centrifuged at 2,000 rpm for 5 min at 4° C. The supernatant was discarded and the pellet was washed 2× with sterile Dulbecco's PBS containing 0.1% fetal calf serum on ice and again centrifuged at 2,000 rpm for 5 min at 4° C. The pellet was resuspended in 500 μl sterile Dulbecco's PBS on ice. Oxidation of H2DCF to DCF by ROS and DiOC6 accumulation in mitochondria were measured immediately at FL-1 by flow cytometry using a FACScalibur (Beckton Dickinson, Heidelberg, Germany). Cell cycle was determined by measurement of priopidiumiodide (PI)-uptake of the cells according to standard procedures. Briefly, the cells were harvested and washed twice in sterile Dulbecco's PBS on ice, spun down at 2,000 rpm for 5 min at 4° C. and fixed with 70% ethanol for 30 min at 4° C. Contaminating RNA was eliminated by treatment with 100 μg/ml of RNase A, then 50 μg/ml PI was added and DNA content was measured immediately at FI-2. […]

Test [2] has as its system U251MG glioblastoma cells. In words: Cytotoxicity assay, cell survival by crystal violet staining. The procedure: 20,000 U251MG glioblastoma cells or human astrocytic cells (ScienCell) were plated into 96-well plates. After 24 h cells were treated with rhHMGB1 (Sigma Aldrich) or rat recombinant HMGB1 (generously provided by Angelika Bierhaus, Heidelberg, Germany), and TRAIL (for 24 h) or Temozolomide (for 72 h) alone or in combination, respectively. […] Cell proliferation was assessed by seeding 50,000 U251 MG cells in 6 cm culture plates and treatment with rhHMGB1, followed by counting the cells in a Neubauer chamber at day 0, 2, 4 and 5.

Test [3] deals with JNK1/2. In words: Western blot analysis of JNK1/2 phosphorylation. The following applies: NAC, rhHMGB1 40 nM (FIG. 3E). As for the experimental part: The U251 MG tumor cells were lysed in lysis buffer containing 20 mmol/L Tris-HCl (pH 7.4), 137 mmol/L NaCl, 10% (v/v) glycerine, 1% Triton X-100, 2 mmol/L EDTA, 100 mmol/L phenylmethylsulfonyl fluoride, and protease inhibitors (Complete mini; Roche Molecular Biochemicals). For the detection of phosphoprotein levels, 10 mmol/L NaPPi, 50 mmol/L NaF, and 20 mmol/L NaVO4 were added to the lysis buffer. After 15 min incubation on ice, the lysates were centrifuged at 14,000×g for 10 min. The total protein concentration of the lysates was measured using the Bradford assay (Bio-Rad). Soluble protein (25-100 μg per lane) was separated on 10% to 15% polyacrylamide gels and blotted onto nitrocellulose by standard procedures. […]

Test [4] relates to pseudo rho zero cells. In words: Survival of pseudo rho zero cells by crystal violet analysis. The following applies: TRAIL 100 ng/ml, 24 h (FIG. 5). The procedure:
U251 glioblastoma cells and non-immortalized human astrocytic cells (ScienCell, USA) were maintained in DMEM (Life Technologies) containing 10% FCS, 4.5 g/L glucose, glutamine, 110 mg/L sodium pyruvate, and 1% penicillin-streptomycin (Life Technologies) and in astrocyte medium (ScienCell) containing 2% FBS (fetal bovine serum) and 1% penicillin-streptomycin at 37° C. and 5% CO2. For the generation of pseudo rho zero cells (0.0), U251 MG cells were treated with low dose (250 ng/ml) ethidiumbromide for 3 months. The cells were supplemented with DMEM (10% FCS, 1% P/S) containing 50 μg/ml L-pyruvate and 5 mg/ml uridine (King and Attardi, 1989).
20,000 U251MG glioblastoma cells or human astrocytic cells (ScienCell) were plated into 96-well plates. After 24 h cells were treated with rhHMGB1 (Sigma Aldrich) or rat recombinant HMGB1 (generously provided by Angelika Bierhaus, Heidelberg, Germany), and TRAIL (for 24 h) or Temozolomide (for 72 h) alone or in combination, respectively. Cell survival was measured by crystal violet staining as described previously (Gdynia et al., 2007). Cell proliferation was assessed by seeding 50,000 U251 MG cells in 6 cm culture plates and treatment with rhHMGB1, followed by counting the cells in a Neubauer chamber at day 0, 2, 4 and 5.

The subject of test [5] is U251 MG cells. In words: Subcellular fractionation and Western blot: cytochrome c release, caspase 3 cleavage. As for the experimental part: The U251 MG tumor cells were lysed in lysis buffer containing 20 mmol/L Tris-HCl (pH 7.4), 137 mmol/L NaCl, 10% (v/v) glycerine, 1% Triton X-100, 2 mmol/L EDTA, 100 mmol/L phenylmethylsulfonyl fluoride, and protease inhibitors (Complete mini; Roche Molecular Biochemicals). For the detection of phosphoprotein levels, 10 mmol/L NaPPi, 50 mmol/L NaF, and 20 mmol/L NaVO4 were added to the lysis buffer. After 15 min incubation on ice, the lysates were centrifuged at 14,000×g for 10 min. The total protein concentration of the lysates was measured using the Bradford assay (Bio-Rad). Soluble protein (25-100 μg per lane) was separated on 10% to 15% polyacrylamide gels and blotted onto nitrocellulose by standard procedures. The membranes were washed, incubated with primary antibody as indicated: mouse anti-human caspase-3 (1:500, Imgenex, San Diego, Calif.); polyclonal rabbit anti-human phosphorylated p44/42 mitogen-activated protein kinase and polyclonal rabbit anti-human phosphorylated stress-activated protein kinase/JNK (1:1,000, Cell Signaling Technology, Inc.); polyclonal anti-rabbit JNK 54/46 (1:1,000, Cell Signaling Technology, Inc.); polyclonal rabbit anti-human IkBalpha (1:500, Santa Cruz Biotechnology, Inc.); mouse monoclonal anti-human BNIP3 (1:10,000, R&D Systems, Inc.); mouse monoclonal anti-human phosphorylated-histone H2A.X (Upstate, Inc.); mouse monoclonal anti-human cytochrome c (1:100, BD Biosciences Pharmingen GmbH, Heidelberg, Germany); mouse anti-human cytochrome c oxidase complex IV (1:100, Molecular Probes, Invitrogen, Karlsruhe, Germany); polyclonal rabbit antimalondialdehyde (1:250, Calbiochem, Merck, Darmstadt, Germany) and mouse monoclonal antibodies to β-tubulin or β-actin (1:3,000, Sigma Chemical Co., St. Louis, Mo.), washed, and incubated with the appropriate secondary antibody (1:3,000; horseradish peroxidase-conjugated, Bio-Rad). Bound antibodies were visualized using an enhanced chemiluminescence detection system (GE-Healthcare, Uppsala, Sweden).
Enrichment of mitochondrial fractions was performed using the ApoAlert Cell Fractionation Kit (Clontech, Mountain View, Calif.) as described previously (Gdynia et al., 2008). Briefly, after centrifugation and several washing steps, the cell pellet was resuspended in ice-cold 1× Fractionation Buffer Mix containing protease inhibitors (Complete mini; Roche Molecular Biochemicals, Indianapolis, Ind.) and 1 mM 1,4-Dithio-DL-threitol solution (DTT). After 10 min incubation on ice, cells were homogenized with a dounce tissue grinder. Efficiency of homogenization was controlled by microscopy. The homogenate was centrifuged at 700×g for 10 min at 4° C. and the resulting supernatant at 10,000×g for 25 min at 4° C. […]
For orientation: A western blot detects proteins with antibodies after separation by electrophoresis.

In the case of `CC(=O)N[C@@H](CS)C(=O)O` [NAC, reference compound], in test [1], the “effect on rhHMGB1-induced ROS generation” value is given as “partially prevented”. Besides, the “effect on rhHMGB1-induced cell death” value in test [2] (NAC 1 mM, 48 h co-treatment with rhHMGB1 (FIG. 3B)) is given as “substantially inhibited”. The “effect on JNK activation after rhHMGB1 treatment” value in test [3] is listed as “prevented the activation of JNK”.

Turning to `O=c1ccn([C@@H]2O[C@H](CO)[C@@H](O)[C@H]2O)c(=O)[nH]1` [uridine, reference compound], the “effect on rhHMGB1-induced cell death” value in test [2] (uridine 5 mg/ml in culture medium, 48 h (FIG. 3F)) is “substantially inhibited”.

B1: TRAIL: death ligand TRAIL, positive control for cytotoxicity (protein, UniProt P50591 1-281, looked up)
Tumor necrosis factor ligand …: MAMMEVQGGPSLGQTCVLIVIFTVLLQSLCVAVTYVYFTNELKQMQDKYSKSGIACFLKEDDSYWDPNDEESMNSPCWQVKWQLRQLVRKMILRTSEETISTVQEKQQNISPLVRERGPQRVAAHITGTRGRSNTLSSPNSKNEKALGRKINSWESSRSGHSFLSNLHLRNGELVIHEKGFYYIYSQTYFRFQEEIKENTKNDKQMVQYIYKYTSYPDPILLMKSARNSCWSKDAEYGLYSIYQGGIFELKENDRIFVSVTNEHLIDMDHEASFFGAFLVG
Take B1: the “apoptotic signalling in pseudo rho zero cells” value in test [4] is given as “still intact”. Further, the “release of cytochrome c into the cytosolic fraction” value in test [5] (TRAIL 200 ng/ml, 3 h (FIG. 6)) is given as “detected”. In addition, the “cleavage of caspase 3” value in test [5] (TRAIL treatment (FIG. 6)) is on record as “observed”.
